Measured values taken from patent US20250295777A1, “HOMEOPATHIC PHARMACEUTICAL COMPOSITION FOR TREATING UPPER AND LOWER RESPIRATORY TRACT DISEASES” (priority 2022, published 2025).
Counter-ions that a name gives are not always drawn. Like-named read-outs stand apart in the source and are kept apart here.

Tests used:
[1] = system: ciliated epithelium (upper respiratory tract epithelium cilia); conditions: cited from earlier work
[2] = system: upper respiratory tract ciliated epithelium; experiment: lifespan of the ciliated epithelium cilia / cell survival time in vitro (test sample vs isotonic NaCl control); type: cell-based, human (patients)
Description: (§1) To determine the efficiency of mucociliary clearance, the authors of the present invention measured the frequency (Frequency) and period (Time) of the upper respiratory tract ciliated epithelium cilia beating using methods for determining these parameters that are well known to persons skilled in the art and have been repeatedly described in the prior art. The authors of the invention took into account that sufficient functioning of the ciliated epithelium cilia is the most important parameter of the effectiveness of mucociliary clearance (Duchateau G S M J E, Graamans K., Zuidema J., Merkus F W H M.—Laryngoscope 1985; 95:854-859), and, therefore, they measured the percentage of ciliated epithelium cells with motile cilia (Movement). Non-limiting (illustrative) examples of methods for determining the parameters of the upper respiratory tract ciliated epithelium cilia beating are given in V. V. Shabalin et al., Biophysical Methods for Studying Mucociliary Transport of the Normal and Pathological Upper and Lower Respiratory Tract.—See in Problems of Therapeutic and Surgical Pulmonology, collection of conference materials, Saint Petersburg, 1997, pp. 44-45.
(§2) The effect of the composition of the invention on the performance of the ciliated epithelium cilia and the lifespan of the ciliated epithelium was studied in comparison with separate components (Apis mellifica, Eupharsia officinalis, Allium cepa, Tatrarus stibiatus, Hepar sulphur, and Arnica montana separately), with the composition according to patent RU 2748548 and with an isotonic NaCl solution (0.9% solution).
(§3) The study included patients with acute and chronic rhinosinusitis, as well as patients without a history of otolaryngological disorders.
(§4) It is well known to persons skilled in the art that the optimal medium for the ciliated epithelium functioning is a saline (0.9% NaCl solution) and that this medium allows the ciliated epithelium cells to move synchronously and live the longest; therefore, ciliated epithelium treated with a saline was used as a control.
(§5) The results include the following parameters: • Frequency 1, Hz—the beating frequency of the ciliated epithelium cilia in the test sample, • Frequency 2, Hz—the beating frequency of the ciliated epithelium cilia in the control (isotonic NaCl solution), • Time 1, min—lifespan of the ciliated epithelium cilia in the test sample, • Time 2, min—lifespan of the ciliated epithelium cilia in the control.

[3] = system: upper respiratory tract ciliated epithelium cilia; experiment: beating frequency of the ciliated epithelium cilia (in vitro, test sample vs isotonic NaCl control); type: cell-based, human (patients)
Description: as §1, §2, §3, §4, §5

[4] = average values over 5 patients / dilutions D3-C30
[5] = dilution C3, single patient sample
[6] = dilution C6, single patient sample
[7] = dilution C30, single patient sample
[8] = dilution D3, single patient sample
[9] = dilution D6, single patient sample

C[C@@H]1CN([C@H]2CC[C@](C#N)(c3ccc(F)cc3)CC2)CC[C@]1(C(=O)O)c1ccccc1 [levocabastine]
ciliary beat frequency (CBF) reduced by [1]: 13%

C[CH2][Hg][S]c1ccccc1C(=O)[O-].[Na+] [thiomersal]
ciliary beat frequency (CBF) reduced by [1]: 100%

neomycin
ciliary beat frequency (CBF) reduced by [1]: 82%

O.O.O.O=C([O-])[C@H]([O-])[C@@H]([O-])C(=O)[O-].O=C([O-])[C@H]([O-])[C@@H]([O-])C(=O)[O-].[K+].[K+].[Sb+3].[Sb+3] [Tartarus stibiatus, tartrate of antimony and potassium]
Time 1, min (lifespan of the ciliated epithelium cilia in the test sample) [2, 4]: 24.6 min | Time 1, min (lifespan of the ciliated epithelium cilia in the test sample) [2, 5]: 28 min | Time 1, min (lifespan of the ciliated epithelium cilia in the test sample) [2, 6]: 20 min | Time 1, min (lifespan of the ciliated epithelium cilia in the test sample) [2, 7]: 28 min | Time 1, min (lifespan of the ciliated epithelium cilia in the test sample) [2, 8]: 27 min | Time 1, min (lifespan of the ciliated epithelium cilia in the test sample) [2, 9]: 20 min | Frequency 1, Hz (beating frequency of the ciliated epithelium cilia in the test sample) [3, 4]: 5.2134 Hz | Frequency 1, Hz (beating frequency of the ciliated epithelium cilia in the test sample) [3, 5]: 6.503 Hz | Frequency 1, Hz (beating frequency of the ciliated epithelium cilia in the test sample) [3, 6]: 5.283 Hz | Frequency 1, Hz (beating frequency of the ciliated epithelium cilia in the test sample) [3, 7]: 4.092 Hz | Frequency 1, Hz (beating frequency of the ciliated epithelium cilia in the test sample) [3, 8]: 5.177 Hz | Frequency 1, Hz (beating frequency of the ciliated epithelium cilia in the test sample) [3, 9]: 5.012 Hz

CC(C)(O)C(Cl)(Cl)Cl [chlorbutol]
ciliary beat frequency (CBF) reduced by [1]: 100%

Cc1cc(C(C)(C)C)cc(C)c1CC1=NCCN1 [xylometazoline hydrochloride]
ciliary beat frequency (CBF) reduced by ([1]; 0.1% solution): 69%
